IC50 data for 8 compounds are collected here from patent US6281356A, “Substituted pyrroles” (Hoffmann-La Roche Inc., priority 2000, dated 2001).

Structures are written as SMILES.

For the experiment, the system named is epithelial breast carcinoma cell line (MDAMB-435). Kind of experiment: Antiproliferative activity (growth inhibition, MTT), epithelial breast carcinoma cell line MDAMB-435. The experiment is classed as cell-based. Conditions: Homo sapiens, MDA-MB-435, 120 h, 5 days post drug addition, 0.1% DMSO, read-out: IC50 (growth inhibition of MDAMB-435 cells). As for the experimental part: The epithelial breast carcinoma cell line (MDAMB-435) was purchased from ATCC (American Type Cell Culture Collection) and was grown in culture medium as recommended by ATCC. For analysis of the effect of various compounds of formula I on the growth of these cells, the cells were plated at a concentration of 1500 cells/well in a 96 well tissue culture plate ("test plate"). The day after the cells were plated, the compounds to be analyzed were dissolved in 100% DMSO (dimethyl sulfoxide) to yield at 10 mM stock solution. Each compound was diluted in H2 O to 1 mM and was added to triplicate wells in the first row of a 96 well master plate containing medium to yield a final concentration of 40 μM. The compounds were then serially diluted in medium in the "master plate". The diluted compound(s) were then transferred to test plates containing cells. A row of vehicle "control cells" received DMSO. The final concentration of DMSO in each well was 0.1%. 5 days post drug addition, the plate was analyzed as described below.
MTT (3-(4-5 methyl thiazole-2-yl)-2,5-diphenyl tetrazolium bromide; thiazolyl blue) was added to each well to yield a final concentration of 1 mg/ml. The plate was then incubated at 37° C. for 21/2-3 hours. The MTT-containing medium was then removed and 50 μl of 100% ethanol was added to each well to dissolve the formazan. The absorbences were then read using an automated plate reader (Bio-tek microplate reader). IC50 s were calculated using the Reed and Munsch equation, see Am. J. Hygiene Vol. 27 pgs. 493-497,1938.
Turning to `Cn1cc(C2=C(c3cn(C)c4cc([N+](=O)[O-])ccc34)C(=O)NC2=O)c2ccc(N3CCCC3)cc21` [Example 12d, 3-(1-Methyl-6-nitro-1H-indol-3-yl)-4-(1-methyl-6-pyrrolidin-1-yl-1H-indol-3-yl)pyrrole-2,5-dione], the IC50 – broadly, the concentration that gives 50% inhibition – was determined as 2 nM.

With `Cn1ccnc1-c1ccc2c(C3=C(c4cn(C)c5cc([N+](=O)[O-])ccc45)C(=O)NC3=O)cn(C)c2c1` [Example 2c, 3-[1-Methyl-6-(1-methyl-1H-imidazol-2-yl)-1H-indol-3-yl]-4-(1-methyl-6-nitro-1H-indol-3-yl)pyrrole-2,5-dione], the IC50 amounted to 30 nM.

For the compound `Cn1cc(C2=C(c3cn(C)c4cc(N5CCOCC5)ccc34)C(=O)NC2=O)c2ccc(C#N)cc21` [Example 13, 1-Methyl-3-[4-(1-methyl-6-morpholin-4-yl-1H-indol-3-yl)-2,5-dioxo-2,5-dihydro-1H-pyrrole-3-yl]-1H-indole-6-carbonitrile], the IC50 stood at 4 nM.

Consider `COCn1cc(C2=C(c3cn(C)c4cc([N+](=O)[O-])ccc34)C(=O)NC2=O)c2ccc(N3CCCC3)cc21` [Example 12g, 3-(1-Methoxymethyl-6-pyrrolidin-1-yl-1H-indol-3-yl)-4-(1-methyl-6-nitro-1H-indol-3-yl)pyrrole-2,5-dione], for which the IC50 is 20 nM.

On to `Cn1nccc1-c1ccc2c(C3=C(c4cn(C)c5cc(Br)ccc45)C(=O)NC3=O)cn(C)c2c1` [Example 2l, 3-(6-Bromo-1-methyl-1H-indol-3-yl)-4-[1-methyl-6-(2-methyl-2H-pyrazol-3yl)-1H-indol-3-yl]pyrrole-2,5-dione], for which the IC50 amounted to 70 nM.

On to `Cn1cc(C2=C(c3c[nH]c4cc(N5CCCC5)ccc34)C(=O)NC2=O)c2ccc([N+](=O)[O-])cc21` [Example 12h, 3-(1-Methyl-6-nitro-1H-indol-3-yl)-4-(6-pyrrolidin-1-yl-1H-indol-3-yl)pyrrole-2,5-dione], for which the IC50 came to 2 nM.

Turning to `Cn1cc(C2=C(c3cn(C)c4cc(N5CCCCC5)ccc34)C(=O)NC2=O)c2ccccc21` [Example 12l, 3-(1-Methyl-1H-indol-3-yl)-4-(1-methyl-6-piperidin-1-yl-1H-indol-3-yl)pyrrole-2,5-dione], the IC50 came to 230 nM.

Take `Cn1cc(C2=C(c3cn(C)c4cc([N+](=O)[O-])ccc34)C(=O)NC2=O)c2ccc(-c3ccco3)cc21` [Example 2h, 3-(6-Furan-2-yl-1-methyl-1H-indol-3-yl)-4-(1-methyl-6-nitro-1H-indol-3-yl)pyrrole-2,5-dione]: the IC50 was found to be 10 nM.
